“Also recorded” adds a separate entry of the source. Read-outs that look alike come from different tables or passages of the source. No end group written: not given here. *: point of attachment. Myristoyl = CCCCCCCCCCCCCC(=O)*
Columns and labels:
human platelets [1] = settings: resting platelets, 250 μM peptide
Description: Platelet Adhesion Assays were carried out as follows: As described before(6), microtiter wells were coated with 30 μg/ml fibrinogen in PBS overnight. Washed human platelets in modified Tyrode's buffer in the absence or presence of 1 mM MnCl2 were incubated in the microtiter wells for one hour at 37° C. in a CO2 incubator. After 3 washes, 50 μl of reaction buffer (0.3% p-nitrophenyl phosphate (Sigma) in 1% Triton-X-100, 50 mM sodium acetate, pH 5.0) was added into each microtiter well and incubated at 37° C. for one hour. The reaction was stopped by adding 50 μl of 1 M NaOH. Results were determined by reading OD at 405 nm wave length. The percentage of platelet adhesion was estimated from the ratio of the readings of adherent platelets to that of total platelets. Statistic significance was determined using t test (n=3).

[2] = system: human platelet-rich plasma; settings: 250 μM peptide
Description: Studies using human platelets were approved by the Institutional Review Board of University of Illinois at Chicago. […] Clot retraction was analyzed with the previously described method (S6, S7). Briefly, mouse platelets (6×10^8/ml) were resuspended in platelet-depleted human plasma, and 0.4 U/ml α-thrombin was added to initiate coagulation. The clots were photographed at various time points. Sizes of retracted clots on photographs were quantified using NIH Image J software. Statistical significance was determined using t-test.
Clot Retraction Assays were carried out as follows: Similar as described before(2, 3), freshly prepared human whole blood was citrated with 1/10 volume of 3.8% sodium citrate. After centrifugation at 1300 rpm for 22 min with break, platelet rich plasma (PRP) was collected. Pre-incubated of PRP with 0.05% DMSO (vehicle), 250 μM mP5 peptide, 250 μM mP13 peptide, or their corresponding scrambled control peptides mP5Scr or mP13Scr for 5 minutes at room temperature. After that, 0.5 U/ml thrombin was added into PRP and mixed gently. The clots were formed and allowed to retract at 37° C. incubator with CO2 and were photographed at various times. The two-dimensional sizes of retracted clots on photographs were quantified using Image J software and were expressed as clot size. Statistical significance was determined using a t test (n=3).

[3] = molecular target: talin association with β3 (Homo sapiens, UniProt Q9Y490); settings: 500 μM peptide, 0.025 U/ml thrombin at 22° C.
Description: Cell lysates were incubated with rabbit anti-Gα13 IgG (1.5 μg/ml), anti-integrin β3 rabbit serum (5 μl/ml) or an equal amount of rabbit IgG or pre-immune serum at 4° C. overnight, and subsequently with protein A-conjugated Sepharose beads for 1 hour. For the integrin β3 clustering experiment, human platelets (3×10^8) were stimulated with 0.025 U/ml α-thrombin for 2 minutes at room temperature (to avoid platelet aggregation) with or without 2 mM RGDS, then incubated with 5 μl anti-integrin β3 8053 rabbit serum at room temperature for 1 hour, and 5 μg goat anti-rabbit secondary antibody for another 1 hour. Platelets were then solubilized in modified RIPA Buffer. For the un-clustering control and pre-immune serum control, cells were solubilized in modified RIPA Buffer first, than incubated with 5 μl 8053 serum or pre-immune serum. After 3-6 washes with lysis buffer, immunoprecipitates were analyzed by SDS-polyacrylamide gel electrophoresis and Western blots using antibodies against β3, talin, or Gα13. In some experiments, 500 μM control or inhibitor peptides, mP5, mP7 and mP13 were incubated with platelet lysates prior to immunoprecipitation, or 2 mM RGDS was added into washed human platelets before stimulation by 0.025 U/ml α-thrombin. GST bead pull down analysis was previously described^8. […] Bead-bound proteins were analyzed by immunoblotting.

c-Src = settings: human platelets adherent to fibrinogen
Description: (FIG. 3A) Washed human platelets pre-treated with DMSO, mSRI, or scrambled control peptide were allowed to adhere to fibrinogen and then solubilized at indicated time points. Proteins from lysates were immunoblotted with antibodies to c-Src phosphorylated at Tyr^416, c-Src, or RhoA. GTP-bound RhoA was measured by association with GST-RBD beads (25). See FIG. S4 for quantitative data. (FIG. 3B) Spreading of platelets treated with 0.1% DMSO, scrambled control peptide, or mSRI, in the absence or presence of C3 toxin, Y27632, or 0.01 U/ml thrombin. Platelets were stained with Alexa Fluor 546-conjugated phalloidin.
(FIG. 13A) Platelets were treated with 500 μM control peptide, mP13, mP7, or mP5 peptides, then immunoprecipitated with anti-Gα13 antibody or equal amount of control rabbit IgG. Lysates and immunoprecipitates were immunoblotted with anti-Gα13 or anti-β3 (MAb15) antibody. (FIG. 13B) Human platelets treated with DMSO, Myr-Scrambled peptide or mP5 peptide were allowed to adhere to immobilized fibrinogen, solubilized and analyzed for RhoA activation and c-Src Tyr^416 phosphorylation. (FIG. 13C) Confocal microscopy images of platelets treated with DMSO, Myristoylated Scrambled peptides, and mP5 peptide treated platelets adherent on fibrinogen for 30 minutes, without or with Rho kinase inhibitor Y27632. Merged […] (green) fluorescence and Alexa Fluor 546-conjugated phalloidin (red) fluorescence. (FIG. 13D) Flow cytometry analysis of PAR4AP (50 μM)-induced Oregon-green labelled fibrinogen binding to human platelets pre-treated with DMSO, 250 μM Myr-Scrambled peptide or 250 μM mP5 peptide. (FIG. 13E) Platelets were preincubated with mP5 or scrambled control peptides and then stimulated with thrombin in a platelet aggregometer at 37° C. Platelet aggregation traces were recorded.
Western blot bands were scanned, and analyzed for uncalibrated optical density using NIH Image J software. Student t-test was used to determine statistical significance.

human platelets [4] = assay type: cell-based; settings: for integrin outside-in signaling (early phase): human platelets on fibrinogen, 250 μM peptide; for platelet spreading on fibrinogen: human platelets, immobilized fibrinogen
Description: The clots were photographed at various time points. […] Statistical significance was determined using t-test.
Studies using human platelets were approved by institutional review board of University of Illinois at Chicago.
Coverslides were pre-coated with 100 μg/ml fibrinogen and blocked with 5% BSA in PBS. 300 μl αIIbβ3-expressing CHO cells (expressing WT or mutant integrins; 1×10^5/ml) or platelets (1×10^7/ml) suspended in Tyrode's buffer were added to coverslides and incubated at 37° C. for various lengths of time. Cells were fixed with 4% paraformaldehyde (PFA) for 10 minutes and permeabilized with 0.1% Triton X-100 in PBS for 2 minutes. After blocking with 5% BSA for 10 minutes, coverslides were incubated with 0.2 μg/ml mAb 15, or Alexa Fluor-546 conjugated phalloidin. For mouse platelets re-express wild type β3 or the AAA mutant of β3, β3 was immuno-stained with the anti-β3 monoclonal antibody MAb 15 and Alexa Fluor-546 conjugated phalloidin. The slides were scanned with a Zeiss LSM5 10 META confocal microscope as previously described^11

Chain of talin association with β3 (Q9Y490 whole entry): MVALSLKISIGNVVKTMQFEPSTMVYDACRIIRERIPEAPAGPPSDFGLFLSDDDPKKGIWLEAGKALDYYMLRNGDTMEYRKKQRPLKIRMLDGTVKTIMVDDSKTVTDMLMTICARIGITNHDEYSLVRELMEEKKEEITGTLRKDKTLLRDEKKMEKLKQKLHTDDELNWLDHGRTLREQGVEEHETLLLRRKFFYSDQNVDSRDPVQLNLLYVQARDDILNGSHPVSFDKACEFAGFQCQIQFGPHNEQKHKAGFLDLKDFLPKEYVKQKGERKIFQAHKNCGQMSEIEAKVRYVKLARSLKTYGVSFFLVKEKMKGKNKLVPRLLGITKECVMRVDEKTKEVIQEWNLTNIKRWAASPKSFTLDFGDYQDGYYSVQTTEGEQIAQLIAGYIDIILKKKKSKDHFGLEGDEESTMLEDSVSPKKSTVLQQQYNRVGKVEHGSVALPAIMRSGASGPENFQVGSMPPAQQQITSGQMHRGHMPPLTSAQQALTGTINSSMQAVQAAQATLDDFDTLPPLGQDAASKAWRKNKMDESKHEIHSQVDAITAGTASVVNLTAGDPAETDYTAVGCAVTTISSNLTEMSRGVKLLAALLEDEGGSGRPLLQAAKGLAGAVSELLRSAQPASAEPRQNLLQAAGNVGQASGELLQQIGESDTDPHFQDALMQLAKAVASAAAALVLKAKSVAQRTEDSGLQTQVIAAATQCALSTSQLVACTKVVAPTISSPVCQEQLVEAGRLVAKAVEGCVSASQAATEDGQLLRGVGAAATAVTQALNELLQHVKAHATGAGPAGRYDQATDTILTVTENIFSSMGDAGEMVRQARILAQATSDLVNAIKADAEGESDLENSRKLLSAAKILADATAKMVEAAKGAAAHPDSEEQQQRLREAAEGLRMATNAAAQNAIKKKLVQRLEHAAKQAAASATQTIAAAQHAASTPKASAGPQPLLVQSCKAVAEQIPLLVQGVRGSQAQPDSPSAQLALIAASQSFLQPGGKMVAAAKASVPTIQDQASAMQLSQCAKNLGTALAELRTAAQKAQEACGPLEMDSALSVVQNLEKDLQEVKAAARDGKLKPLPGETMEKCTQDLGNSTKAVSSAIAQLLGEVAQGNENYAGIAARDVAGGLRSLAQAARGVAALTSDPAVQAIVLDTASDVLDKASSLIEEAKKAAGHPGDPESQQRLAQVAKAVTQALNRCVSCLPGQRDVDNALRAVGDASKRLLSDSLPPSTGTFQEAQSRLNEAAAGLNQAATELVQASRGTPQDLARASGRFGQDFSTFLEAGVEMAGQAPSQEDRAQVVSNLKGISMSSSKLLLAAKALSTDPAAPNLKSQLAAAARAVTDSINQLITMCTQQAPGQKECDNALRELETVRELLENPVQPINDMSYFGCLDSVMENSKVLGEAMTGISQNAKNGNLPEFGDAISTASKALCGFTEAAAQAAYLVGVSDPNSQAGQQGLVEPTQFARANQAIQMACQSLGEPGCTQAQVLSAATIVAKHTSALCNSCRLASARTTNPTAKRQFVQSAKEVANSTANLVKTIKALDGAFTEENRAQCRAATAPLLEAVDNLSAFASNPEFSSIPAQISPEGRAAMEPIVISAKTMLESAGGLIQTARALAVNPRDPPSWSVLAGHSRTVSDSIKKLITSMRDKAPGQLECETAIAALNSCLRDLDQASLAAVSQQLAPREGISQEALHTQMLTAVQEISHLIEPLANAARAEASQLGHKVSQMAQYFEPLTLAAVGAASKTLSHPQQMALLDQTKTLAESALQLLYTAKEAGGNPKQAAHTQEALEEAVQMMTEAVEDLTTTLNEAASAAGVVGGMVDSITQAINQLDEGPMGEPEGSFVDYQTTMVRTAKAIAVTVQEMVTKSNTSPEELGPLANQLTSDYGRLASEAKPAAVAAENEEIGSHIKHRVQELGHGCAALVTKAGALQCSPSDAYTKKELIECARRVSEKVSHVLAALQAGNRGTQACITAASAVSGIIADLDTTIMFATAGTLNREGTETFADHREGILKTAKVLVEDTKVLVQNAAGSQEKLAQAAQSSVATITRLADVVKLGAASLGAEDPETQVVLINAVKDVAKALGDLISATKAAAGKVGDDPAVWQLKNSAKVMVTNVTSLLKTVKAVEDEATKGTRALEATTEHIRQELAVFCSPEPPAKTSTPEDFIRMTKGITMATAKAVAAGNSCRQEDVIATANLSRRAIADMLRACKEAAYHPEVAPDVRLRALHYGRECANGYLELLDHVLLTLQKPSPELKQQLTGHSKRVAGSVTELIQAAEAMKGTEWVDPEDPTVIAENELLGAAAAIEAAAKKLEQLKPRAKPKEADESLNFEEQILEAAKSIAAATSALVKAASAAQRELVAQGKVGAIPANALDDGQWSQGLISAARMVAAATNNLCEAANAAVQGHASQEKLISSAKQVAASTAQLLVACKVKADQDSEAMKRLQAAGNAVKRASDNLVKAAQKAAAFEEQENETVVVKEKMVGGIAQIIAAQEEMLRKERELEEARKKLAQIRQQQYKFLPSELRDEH

Substance | platelet adhesion to immobilized fibrinogen (human platelets [1]) | clot retraction [2] | talin association with β3 [3] | integrin-dependent phosphorylation of c-Src Tyr416 (c-Src activation) (c-Src) | integrin-dependent phosphorylation of c-Src Tyr416 (c-Src activation) (c-Src; listed as Myr-P5) | integrin outside-in signaling (early phase) (human platelets [4]) | platelet spreading on fibrinogen (human platelets [4]) | platelet spreading on fibrinogen (human platelets [4]; listed as Myr-P5) | thrombin-promoted platelet spreading (human platelets [4]; 0.01 U/ml thrombin)
Myr-EEERA [mP5] | nor does it affect | accelerated | not | inhibited | decreased | selectively inhibited | abolished; also recorded: inhibited | inhibited | 
Myristoyl-KFEEERA [mP7] |  |  |  | inhibited |  |  | abolished |  | 
Myristoyl-LLARRPTKGIHEY [mSRI] |  | accelerated |  | inhibited |  |  | inhibited |  | abolished
Myristoyl-KFEEERARAKWDT [mP13] | inhibited | inhibited | inhibited | inhibited |  | inhibited | abolished |  | 

— patent US10738080B2, “Inhibitors of beta integrin-G protein alpha subunit binding interactions” (priority 2010, dated 2020)
